Source: patent publication US8628770B2, “Slimming cosmetic composition containing a substance inducing the production of IL-6” (Sanofi, priority 1999, dated 2014)

Tested on: mature adipocytes 3T3-L1
Test: Production of IL-6 by the mature adipocytes 3T3-L1 (ELISA)
Format: cell-based, murine
Conditions: reference IL-6 inducer at 50 ng/ml
Excerpt: The biological effects of substance C in vitro has been studied on the murine line 3T3-L1. This preadipocyte line, routinely cultured in DMEM medium ([…]) enriched with 10% foetal calf serum has the property of differentiating into mature adipocytes in the presence of inducers such as insulin and indomethacin (Slieker L. J. Biochem. Biophys. Res. Com. 1998, 251, 225-229). […] This passage from the stage of immature cell to the stage of functional adipocyte can be morphologically assessed by the appearance of intracytoplasmic lipid storage vesicles which are visible under the microscope or which can be biochemically detected by measuring the production of leptin, the hormone for satiety produced solely by mature adipocytes.
The influence of substance C on the adipocyte activity was evaluated at two levels. […]
Mature adipocytes 3T3-L1 (harvested after 10 days of differentiation induced by the insulin (5 μg/ml) and indomethacin (125 μm) combination) are stimulated with substance C at 1% (v/v) for 24 hours. The culture supernatant is then removed and its IL-6 content measured by ELISA (Enzyme Linked Immunosorbent Assay) according to the supplier's instructions (R&D Systems, Abingdon, GB). […]

Substance: TNF-α
- IL-6 content of culture supernatant: 52 pg/mL
